The subject of assay [1] is HPV16 oncoproteins E6 and E7. Description: Western and Northern blotting for HPV16 oncoproteins E6 and E7 (test (d)). Conditions: positive in CaSki and SiHa cells. The assay is classed as cell-based, human papillomavirus. As for the experimental part:
We turn now to the criterion (d), that is at least 50% downregulation of expression of HPV16 oncoproteins E6 and E7.
Protein E6 and E7 which are expressed by HPV16 are believed to play a major role in carcinogenesis.
Western blotting and Northern blotting techniques were used to evaluate the expression of HPV E6 and E7 proteins. The cell lines used for the study were CaSKi and SiHa. The cells were treated with the test compound and cell lysate was obtained as described above and subjected to Western blotting analysis. The Western blotting analysis was performed as described above except anti-HPV 16 E7 antibody was used to probe the blot. The antibody was obtained from Santa Cruz Biotechnology, Inc. CA. For Northern blotting, total cellular RNA was isolated from cell monolayers using an RNA isolation kit from QIAGEN Inc. after treatment with the test compound. 10 μg of total cellular RNA per lane were electrophoresed in a formaldehyde-containing 1.2% agarose gel and transferred to nylon-supported membranes. After baking, membranes were prehybridized overnight in a solution containing 50% formamide, 5×sodium chloride-sodium phosphate-EDTA buffer (SSPE), 5×Denhardt's solution, 0.1% SDS and 100 μg/ml single-stranded salmon sperm DNA and then hybridized for 12 h at 42° C. with radiolabeled cDNA probes for human HPV16 E6 or E7 cDNAs and 18S rRNA. E6 and E7 (as described in Woodworth, C. D., Cancer Res. 16, 4397-4402 (2000)) and 18S rRNA probes were labeled with [^32P]-CTP by random priming. After hybridization, membranes were washed twice for 20 min at room temperature in 2×SSPE-0.1% SDS, twice for 20 min in the same solution at 55° C., and twice for 20 min in 0.1×SSPE-0.1% SDS at 55° C. Washed membranes were then subjected to autoradiography.

The next assay has as its system PPRE luciferase. Description: PPRE luciferase activation, transient transfection reporter assay (test (a)). The class given is cell-based, human. As to conditions: positive in 184B5, 184B5/HER, HCA7, HCT116, SKBR3 and BT474 cells; 24 h treatment. The text has this: We turn now to criterion (a), that is activation of PPRE luciferase by at least 100%. PPRE-luciferase refers to a DNA construct containing the peroxisome proliferator activated receptor (PPAR) binding element joined to luciferase. Cells are transfected with PPRE-luciferase DNA. Ligands of PPAR induce luciferase activity. The ability of a test compound to stimulate PPRE-luciferase signifies that the test compound activates PPAR-mediated gene transcription. PPRE means peroxisome proliferator response element and the method by which PPRE-luciferase is constructed is described in Schoonjans, K., et al, J. Biol. Chem. 270, No. 33, 19269-19276 (Aug. 18, 1995). Use of PPRE-luciferase in a transient transfection to measure increase in promoter activity is disclosed in Subbaramaiah, K. et al, J. Biol. Chem. 270, No. 15, 12440-12448 (Apr. 13, […]).
For each well, 1.8 μg of PPRE3-tk-luciferase construct plasmid DNA (described in Forman, B. M., et al, Cell 83, 803 (1995)) plus 0.2 μg of pSV-β-galactosidase were introduced into cells using 8 μg of LipofectAMINE as per the manufacturer's instructions (Invitrogen, CA). After 7 h of incubation, the medium was replaced with basal medium. After transfection, cells were treated with test compound for 24 h. Reporter activities which include luciferase and β-galactosidase were measured in cellular extract 24 h later. Six wells were used for each of the conditions. Luciferase activity represents data that have been normalized with β-galactosidase.
The luciferase assay was performed as per the BD Pharmingen assay reagents. The Enhanced Luciferase Assay Kit provides a firefly luciferase substrate formulation (Substrates A and B) and cell lysis buffer intended for use in measuring luciferase expressed by transfected cells. Media from cell culture plates was removed and rinsed twice with phosphate buffered saline. Enough 1X cell lysis buffer was added to cover cells and incubated at room temperature for 15-20 min. Cells were dislodged by scraping and transferred to microcentrifuge tubes. […] 20-100 μl cell extract was placed into an assay cuvette. One automatic injector type luminometer is used for assay. Manually 100 μl of Substrate A was added to the assay cuvette and automatically 100 μl of Substrate B was injected. Measurements were performed using a luminometer, for a measurement time of 10 seconds.
The β-galactosidase assay was performed as follows:
50 μl of cell lysate from above was incubated with 50 μl of o-nitrophenyl-β-D-galactoside (ONPG; 4 mg/mL) in Z buffer, (Na2HPO4.7H2O (0.06M), NaH2PO4.H2O (0.04M), 1M KCl (0.01M), 1M MgSO4 (0.001M), β-mercaptoethanol (BME) (0.05M) pH 7.0). The reaction was stopped after sufficient yellow color has developed. The yellow color developed is measured at A420 […].

The test system of the next assay is PTEN. Description: Western and Northern blotting for expression of PTEN (test (e)). The class given is cell-based, human. Conditions: positive in 184B5, 184B5/HER, HCA7, HCT116, SKBR3 and BT474 cells. The method, then: We turn now to criterion (e), i.e., at least 50% increase in expression of PTEN.
PTEN is a tumor suppressor that inhibits cell proliferation and induces programmed cell death. PTEN (also know as MMAC-1 or TEP-1) is described in Yamada, K. M., et al, Journal of Cell Science 114, 2375-2382, the whole of which is incorporated herein by reference.
Western blotting and Northern blotting techniques were used to evaluate the expression of PTEN. The expression of PTEN was evaluated in HCA7, HCT116, SKBR3, 184B5/HER, 184B5 and BT474 cells. 5×10^6cells were used to treat either vehicle alone or the test compound. The Western blotting analysis was performed as described above except anti-PTEN antibody was used to probe the blot. The antibody was obtained from Santa Cruz Biotechnology, Inc. CA. Northern blotting for PTEN was performed as described above and cDNA for PTEN as described in Tamura, M., et al, Science 5; 280 (5369):1614-1617 (1998), was used as a probe.

In assay [2] the test system is tcf/lef/β-catenin-mediated promoter activation. Description: TOPflash/FOPflash reporter assay for tcf/lef/β-catenin-mediated promoter activation (test (f)). As to conditions: positive in 184B5, 184B5/HER, HCA7, HCT116, SKBR3 and BT474 cells; 24 h. The class given is cell-based, human. The text has this:
Tcf/lef/β-catenin is a transcription factor complex that has been implicated in the regulation of genes involved in carcinogenesis. Increased tcf/lef/β-catenin-mediated gene expression has been linked to pathogenesis of colon cancer. Tcf/lef/β-catenin is described in Barker, N., et al, Adv. Cancer Res. 77, 1-24 (2000), the whole of which is incorporated herein by reference.
Cells (cell lines were 184B5, 184B5/HER, HCA7, HCT116, SKBR3 and BT474) were split into 6 well dishes and the next day were transiently transfected using 8 μg of LipofectAMlNE as per the manufacturer's instructions (Invitrogen, CA). 1.8 μg/dish of the wildtype Tcf/Lef reporter plasmid TOP flash or the mutant plasmid FOP flash was transfected into the cells and 0.2 μg of pSV-β-galactosidase. FOPflash differs from TOPflash by the mutation of its Tcf binding sites and serves to differentiate Tef/-catenin-mediated signaling from background (Upstate Biotechnology, Inc.). Cells were incubated overnight and were treated for 24 hours with either vehicle or test compound. Luciferase activity in the extracts was measured as described above and was corrected for background by subtraction of FOP-FLASH values from corresponding TOP-FLASH values.
Background: A reporter such as luciferase makes a cellular process visible.

In the case of `COc1ccc2c(c1)c(CC(=O)Nc1cccnc1)c(C)n2C(=O)c1ccc(Cl)cc1` [Indomethacin Analog 4, N-(3-pyridyl)-indomethacin amide], in assay [1], the “Test (d) at least 50% downregulation of expression of HPV16 oncoproteins E6 and E7” value is “+ (A plus sign in the table indicates a positive result, that is meeting the test for each cell line as indicated above as providing a positive result)”. Further, in the assay on PPRE luciferase, the “Test (a) activation of PPRE luciferase by at least 100%” value is “+ (A plus sign in the table indicates a positive result, that is meeting the test for each cell line as indicated above as providing a positive result)”. The “Test (e) at least 50% increase in expression of PTEN” value in the assay with PTEN is reported as “+ (A plus sign in the table indicates a positive result, that is meeting the test for each cell line as indicated above as providing a positive result)”. For the same compound, the “Test (f) at least 50% inhibition of tcf/lef/β-catenin-mediated promoter activation” value in assay [2] is recorded as “+ (A plus sign in the table indicates a positive result, that is meeting the test for each cell line as indicated above as providing a positive result)”.

For the origin of these results see patent publication US20050031537A1, “Multifunctional COX-2 inhibitors” (priority 2002, published 2005).
